Results reported in US20040191208A1, “Cosmetic composition for men's skin care and hair care” (Laboratoires Clarins, a corporation of France, priority 2001, published 2004).

How the values were obtained:
[1] = tested on: synthesis of prostaglandins (PGE2); experiment: PGE2 synthesis induced by PMA in cultured keratinocytes (approach 2), ELISA, evaluating inhibition of cyclooxygenase; format: cell-based, human; conditions: indomethacin 1 μM
Description: (§1) In the initial steps of the induction of inflammation, the arachidonic acid stored in the cell membranes is liberated. Once the arachidonic acid has been liberated, it can follow different metabolic pathways. The pathways include: the cyclooxygenase enzyme pathway which leads to the prostaglandins, and the lipoxygenase enzyme pathway which leads to the leukotrienes. The anti-inflammatory activity of purslane extract was, therefore, tested in vitro by evaluating the inhibition of cyclooxygenase. The ELISA-based test employed made it possible to monitor the synthesis of prostaglandins (PGE2) in cultures of human keratinocytes. The cells were used at subconfluence with a cellular multiplication and an active metabolic activity. Two approaches were employed: approach 1: synthesis of the PGE2 intrinsic to the cultured cells; and approach 2: synthesis of the PGE2 induced chemically by PMA (phorbol myristate acetate), an inflammatory agent. Normal human keratinocytes were cultured at 37° C. for 48 hours in a defined medium in the presence of the following products: approach 1: -purslane extract (0.1%, 0.5%, 1% and 3% vol/vol) - aspirin 100 μM (anti-inflammatory, reference compound) approach 2: - purslane extract (0.1%, 0.5%, 1% and 3% vol/vol) - indomethacin 1 μM (anti-inflammatory, reference compound) - stimulation with PMA 1 μg/ml (after 24 hours of incubation). At the end of 48 hours, the different media were collected for quantitative determination of the PGE2. The protective capacity against the liberation of prostaglandins induced by the pro-inflammatory agent PMA was studied using approach 2.

[2] = tested on: synthesis of prostaglandins (PGE2); experiment: PGE2 synthesis intrinsic to cultured keratinocytes (approach 1), ELISA, evaluating inhibition of cyclooxygenase; format: cell-based, human; conditions: aspirin 100 μM
Description: as §1, with “PGE2.” for “PGE2. The protective capacity against the liberation of prostaglandins induced by the pro-inflammatory agent PMA was studied using approach 2.”

| SMILES | inhibition at 1 µM ([1]; Homo sapiens, Keratinocyte, PMA-induced PGE2, read-out: % inhibition of the liberation of PGE2) | % control ([1]; PGE2 relative to control, PMA-induced) | Pg PGE2/mg prot ([1]; PMA 1 μg/ml stimulation after 24 h, 48 h) | % inhibition of the liberation of PGE2 ([1]; PMA-induced PGE2) | inhibition at 100 µM ([2]; Homo sapiens, Keratinocyte, intrinsic PGE2, 48 h, read-out: % inhibition of the liberation of PGE2) | % control ([2]; PGE2 relative to control, intrinsic PGE2, 48 h) | Pg PGE2/mg prot ([2]; normal human keratinocytes, 48 h, intrinsic PGE2) |
| --- | --- | --- | --- | --- | --- | --- | --- |
| COc1ccc2c(c1)c(CC(=O)O)c(C)n2C(=O)c1ccc(Cl)cc1 [Indomethacin, indomethacin] | 80% | 21.0% | 1683.9 Pg PGE2/mg prot | 79.0% |  |  |  |
| CC(=O)Oc1ccccc1C(=O)O [Aspirin, aspirin] |  |  |  |  | 60.3% | 39.7% | 1968.2 Pg PGE2/mg prot |
